The results in this text go back to patent US8461328B2, “Tricyclic heterocyclic compounds, compositions and methods of use thereof” (Genentech, Inc., priority 2010, dated 2013).

The structures appear in SMILES notation.

Usually Ki stands for the dissociation constant of the complex between target and ligand, obtained from inhibition or displacement.

What all share (assay type): biochemical
The target of assay [1] is T1, JAK2 (Homo sapiens, UniProt O60674).
T1 construct: made in house; host or cells: SF9 insect cells (baculovirus)
T1 sequence (O60674 812-1132): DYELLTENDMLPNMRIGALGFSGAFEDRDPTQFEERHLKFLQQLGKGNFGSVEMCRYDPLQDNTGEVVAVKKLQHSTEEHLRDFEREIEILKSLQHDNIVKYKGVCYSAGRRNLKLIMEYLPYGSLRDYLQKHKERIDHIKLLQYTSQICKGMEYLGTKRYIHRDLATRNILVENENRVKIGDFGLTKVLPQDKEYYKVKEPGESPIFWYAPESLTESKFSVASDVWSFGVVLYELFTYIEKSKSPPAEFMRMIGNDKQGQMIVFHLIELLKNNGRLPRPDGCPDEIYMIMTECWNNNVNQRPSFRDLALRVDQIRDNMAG
Nature of the assay: JAK2 inhibition (Table 4). The settings on record: read-out: JAK2 Ki.

Assay [2] addresses T2, JAK3 (Homo sapiens, UniProt P52333).
T2 construct: made in house; host or cells: SF9 insect cells (baculovirus)
The assay can be described thus: JAK3 inhibition (Table 4). As to conditions: read-out: JAK3 Ki.

The target of assay [3] is T3, TYK2 (Homo sapiens, UniProt P29597).
T3 construct: made in house; host or cells: SF9 insect cells (baculovirus)
T3 sequence (P29597 873-1187): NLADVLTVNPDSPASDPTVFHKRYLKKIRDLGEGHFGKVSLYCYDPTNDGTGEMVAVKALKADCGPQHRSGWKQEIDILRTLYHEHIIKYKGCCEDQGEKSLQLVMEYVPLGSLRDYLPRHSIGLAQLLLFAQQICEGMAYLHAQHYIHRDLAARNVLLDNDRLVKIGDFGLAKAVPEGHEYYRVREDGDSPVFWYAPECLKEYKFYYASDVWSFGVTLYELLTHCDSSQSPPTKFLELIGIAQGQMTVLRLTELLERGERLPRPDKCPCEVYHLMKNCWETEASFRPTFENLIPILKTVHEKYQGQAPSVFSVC
The assay can be described thus: TYK2 inhibition (Table 4).

The target in assay [4] is T4, JAK1 (Homo sapiens, UniProt P23458).
T4 construct: made in house; host or cells: SF9 insect cells (baculovirus)
T4 sequence (P23458 852-1154): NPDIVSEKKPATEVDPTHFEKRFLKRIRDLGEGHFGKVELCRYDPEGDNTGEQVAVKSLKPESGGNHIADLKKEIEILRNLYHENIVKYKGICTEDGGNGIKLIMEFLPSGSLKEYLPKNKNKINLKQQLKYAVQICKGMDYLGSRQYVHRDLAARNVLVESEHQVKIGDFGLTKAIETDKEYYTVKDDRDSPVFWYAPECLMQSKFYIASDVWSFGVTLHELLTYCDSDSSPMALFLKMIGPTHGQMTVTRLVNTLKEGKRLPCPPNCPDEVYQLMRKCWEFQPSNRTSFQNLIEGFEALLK
The assay can be described thus: JAK1 inhibition (Table 4). The settings on record: read-out: JAK1 Ki.

T2 sequence (P52333 783-1124): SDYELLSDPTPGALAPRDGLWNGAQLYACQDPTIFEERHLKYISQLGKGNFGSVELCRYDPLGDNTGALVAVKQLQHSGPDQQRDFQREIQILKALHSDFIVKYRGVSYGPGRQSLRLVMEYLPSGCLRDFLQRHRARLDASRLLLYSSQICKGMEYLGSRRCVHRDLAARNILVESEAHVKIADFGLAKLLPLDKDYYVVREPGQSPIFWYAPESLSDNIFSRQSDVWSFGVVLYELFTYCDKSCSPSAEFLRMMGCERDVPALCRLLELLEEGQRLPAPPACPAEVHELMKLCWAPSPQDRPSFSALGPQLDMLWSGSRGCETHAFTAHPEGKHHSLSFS

Turning to `N#CCCN1CCC(n2c(COCC3CCC3)nc3cnc4[nH]ccc4c32)CC1` [Example 840, 3-[4-(2-Cyclobutylmethoxymethyl-6H-1,3,5,6-tetraaza-as-indacen-1-yl)-piperidin-1-yl]-propionitrile], the Ki in assay [1] came to 102 nM; in assay [2] it was 104 nM; in assay [3] it was 635 nM; in assay [4], 62.3 nM.
As to `CC1CC1COCc1nc2cnc3[nH]ccc3c2n1C1CCN(CCC#N)CC1` (stereo not drawn) [Example 841, 3-{4-[2-(2-Methyl-cyclopropylmethoxymethyl)-6H-1,3,5,6-tetraaza-as-indacen-1-yl]-piperidin-1-yl}-propionitrile], the Ki in assay [1] is 109 nM; in assay [2] it was 147 nM; in assay [3], 771 nM; in assay [4], 66.5 nM.
Take `CC(C)OCc1nc2cnc3[nH]ccc3c2n1C1CCN(CCC#N)CC1` [Example 842, 3-[4-(2-Isopropoxymethyl-6H-1,3,5,6-tetraaza-as-indacen-1-yl)-piperidin-1-yl]-propionitrile]: the inhibition constant Ki in assay [1] was 171 nM; in assay [2], 236 nM; in assay [3] it was 905 nM; in assay [4] it was 81 nM.
In the same order, the values of `CC(C)OCCOCc1nc2cnc3[nH]ccc3c2n1C1CCN(CCC#N)CC1` [Example 843, 3-{4-[2-(2-Isopropoxy-ethoxymethyl)-6H-1,3,5,6-tetraaza-as-indacen-1-yl]-piperidin-1-yl}-propionitrile] are 80.8 nM, 169 nM, 631 nM and 84.2 nM.
As to `N#CCCN1CCC(n2c(COC3CCCC3)nc3cnc4[nH]ccc4c32)CC1` [Example 844, 3-[4-(2-Cyclopentyloxymethyl-6H-1,3,5,6-tetraaza-as-indacen-1-yl)-piperidin-1-yl]-propionitrile], the Ki in assay [1] was 177 nM; in assay [2] it was 169 nM; in assay [3], 732 nM; in assay [4], 97.1 nM.
`Cc1nc2cnc3[nH]ccc3c2n1C1CC2CCC1O2` (stereo not drawn) [Example 845, exo-2-Methyl-1-(7-oxa-bicyclo[2.2.1]hept-2-yl)-1,6-dihydro-1,3,5,6-tetraaza-as-indacene]: the Ki in assay [1] stood at 13.9 nM; in assay [2] it was 52.3 nM; in assay [3], 28.8 nM; in assay [4], 4.17 nM.
In the same order, the values of `CC(O)c1nc2cnc3[nH]ccc3c2n1C1CC2CCC1O2` (stereo not drawn) [Example 848, endo-1-[1-(7-Oxa-bicyclo[2.2.1]hept-2-yl)-1,6-dihydro-1,3,5,6-tetraaza-as-indacen-2-yl]-ethanol] are 156 nM, 71.9 nM, 216 nM and 120 nM.
Taken in the same sequence, the figures for `CS(=O)(=O)NCCc1nc2cnc3[nH]ccc3c2n1[C@H]1CCCOC1` [Example 854, (S)—N-{2-[1-(Tetrahydro-pyran-3-yl)-1,6-dihydro-1,3,5,6-tetraaza-as-indacen-2-yl]-ethyl}-methanesulfonamide] were 77.1 nM, 195 nM, 138 nM and 4.01 nM.
Take `CC(=O)NCCc1nc2cnc3[nH]ccc3c2n1[C@H]1CCCOC1` [Example 856, (S)—N-{2-[1-(Tetrahydro-pyran-3-yl)-1,6-dihydro-1,3,5,6-tetraaza-as-indacen-2-yl]-ethyl}-acetamide]: the Ki worked out at 121 nM in assay [1], 276 nM in assay [2], 259 nM in assay [3] and 5.96 nM in assay [4].
In the same order, the values of `O=C(NCCc1nc2cnc3[nH]ccc3c2n1[C@H]1CCCOC1)C1CC1` [Example 857, (S)-Cyclopropanecarboxylic acid {2-[1-(tetrahydro-pyran-3-yl)-1,6-dihydro-1,3,5,6-tetraaza-as-indacen-2-yl]-ethyl}-amide] are 213 nM, 525 nM, 364 nM and 6.23 nM.
Taken in the same sequence, the figures for `OCCc1nc2cnc3[nH]ccc3c2n1[C@H]1CCCOC1` [Example 859, (S)-2-[1-(Tetrahydro-pyran-3-yl)-1,6-dihydro-1,3,5,6-tetraaza-as-indacen-2-yl]-ethanol] were 53 nM, 107 nM, 68.4 nM and 10.1 nM.
In the same order, the values of `C[C@@H](O)c1nc2cnc3[nH]ccc3c2n1C1CCN(C2(CC#N)COC2)CC1` [Example 861, (3-{4-[2-((R)-1-Hydroxy-ethyl)-6H-1,3,5,6-tetraaza-as-indacen-1-yl]-piperidin-1-yl}-oxetan-3-yl)-acetonitrile] are 205 nM, 1670 nM, 602 nM and 39.4 nM.
On to `CS(=O)(=O)NCCc1nc2cnc3[nH]ccc3c2n1[C@@H]1CCCOC1` [Example 862, (R)—N-{2-[1-(Tetrahydro-pyran-3-yl)-1,6-dihydro-1,3,5,6-tetraaza-as-indacen-2-yl]-ethyl}-methanesulfonamide], for which the Ki amounted to 437 nM in assay [1], 445 nM in assay [2], 994 nM in assay [3] and 49.5 nM in assay [4].
In the case of `O=C(NCCc1nc2cnc3[nH]ccc3c2n1[C@@H]1CCCOC1)C1CC1` [Example 863, (R)-Cyclopropanecarboxylic acid {2-[1-(tetrahydro-pyran-3-yl)-1,6-dihydro-1,3,5,6-tetraaza-as-indacen-2-yl]-ethyl}-amide], the Ki was 828 nM in assay [1], 1240 nM in assay [2], 2020 nM in assay [3] and 67.2 nM in assay [4].
In the same order, the values of `OCCc1nc2cnc3[nH]ccc3c2n1[C@@H]1CCCOC1` [Example 864, (R)-2-[1-(Tetrahydro-pyran-3-yl)-1,6-dihydro-1,3,5,6-tetraaza-as-indacen-2-yl]-ethanol] are 235 nM, 305 nM, 286 nM and 71.7 nM.
Taken in the same sequence, the figures for `CC(=O)NCCc1nc2cnc3[nH]ccc3c2n1[C@@H]1CCCOC1` [Example 865, (R)—N-{2-[1-(Tetrahydro-pyran-3-yl)-1,6-dihydro-1,3,5,6-tetraaza-as-indacen-2-yl]-ethyl}-acetamide] were 566 nM, 717 nM, 1270 nM and 87.8 nM.
In the same order, the values of `C[C@@H](O)c1nc2cnc3[nH]ccc3c2n1C1CCCC1` [Example 867, (R)-1-(1-Cyclopentyl-1,6-dihydro-1,3,5,6-tetraaza-as-indacen-2-yl)-ethanol] are 96.5 nM, 119 nM, 26.6 nM and 3.58 nM.
For `CCN1CC[C@@H](n2c([C@@H](C)O)nc3cnc4[nH]ccc4c32)[C@@H](F)C1` [Example 868, (R)-1-[1-((3S,4R)-1-Ethyl-3-fluoro-piperidin-4-yl)-1,6-dihydro-1,3,5,6-tetraaza-as-indacen-2-yl]-ethanol], the inhibition constant Ki in assay [1] came out at 148 nM; in assay [2], 119 nM; in assay [3] it was 149 nM; in assay [4], 7.07 nM.
Taken in the same sequence, the figures for `C#CCCN1CCC(n2c([C@@H](C)O)nc3cnc4[nH]ccc4c32)CC1` [Example 871, (R)-1-[1-(1-But-3-ynyl-piperidin-4-yl)-1,6-dihydro-1,3,5,6-tetraaza-as-indacen-2-yl]-ethanol] were 290 nM, 177 nM, 1170 nM and 59.7 nM.
Taken in the same sequence, the figures for `C[C@@H](O)c1nc2cnc3[nH]ccc3c2n1C1CCN(CCF)CC1` [Example 873, (R)-1-{1-[1-(2-Fluoro-ethyl)-piperidin-4-yl]-1,6-dihydro-1,3,5,6-tetraaza-as-indacen-2-yl}-ethanol] were 124 nM, 72.7 nM, 422 nM and 20.7 nM.
In the same order, the values of `C[C@@H](O)c1nc2cnc3[nH]ccc3c2n1C1CCNCC1F` (stereo partly drawn) [Example 877, (R)-1-[1-(3-Fluoro-piperidin-4-yl)-1,6-dihydro-1,3,5,6-tetraaza-as-indacen-2-yl]-ethanol] are 37.8 nM, 10.6 nM, 10.9 nM and 1.69 nM.
For the molecule `O[C@@H](c1nc2cnc3[nH]ccc3c2n1C1CCCCC1)C(F)(F)F` [Example 878, (S)-1-(1-Cyclohexyl-1,6-dihydro-1,3,5,6-tetraaza-as-indacen-2-yl)-2,2,2-trifluoro-ethanol], the Ki was determined as 43.7 nM in assay [1], 13.6 nM in assay [2], 11.8 nM in assay [3] and 1.8 nM in assay [4].
Turning to `C[C@@H](O)c1nc2cnc3[nH]ccc3c2n1C1CCOCC1` [Example 881, (R)-1-[1-(Tetrahydro-pyran-4-yl)-1,6-dihydro-1,3,5,6-tetraaza-as-indacen-2-yl]-ethanol], the Ki in assay [1] turned out to be 280 nM; in assay [2] it was 90.6 nM; in assay [3], 59.7 nM; in assay [4], 26.4 nM.
Taken in the same sequence, the figures for `C[C@@H](O)c1nc2cnc3[nH]ccc3c2n1N1CCCCC1` [Example 882, (R)-1-(1-Piperidin-1-yl-1,6-dihydro-1,3,5,6-tetraaza-as-indacen-2-yl)-ethanol] were 51.6 nM, 72.6 nM, 10.6 nM and 3.56 nM.
